Key:
[1] = target: T1, ITK (Homo sapiens, UniProt Q08881); experiment: ADP-Glo + ITK Kinase enzyme system kit, inhibitory activity against ITK; assay type: biochemical; details: ITK enzyme 0.4 ng/ul, ATP final concentration of 25 ul, 30° C. for 1 hour, luminescence, duplicate
T1 construct: purchased Promega Corporation
T1 sequence (Q08881 1-620): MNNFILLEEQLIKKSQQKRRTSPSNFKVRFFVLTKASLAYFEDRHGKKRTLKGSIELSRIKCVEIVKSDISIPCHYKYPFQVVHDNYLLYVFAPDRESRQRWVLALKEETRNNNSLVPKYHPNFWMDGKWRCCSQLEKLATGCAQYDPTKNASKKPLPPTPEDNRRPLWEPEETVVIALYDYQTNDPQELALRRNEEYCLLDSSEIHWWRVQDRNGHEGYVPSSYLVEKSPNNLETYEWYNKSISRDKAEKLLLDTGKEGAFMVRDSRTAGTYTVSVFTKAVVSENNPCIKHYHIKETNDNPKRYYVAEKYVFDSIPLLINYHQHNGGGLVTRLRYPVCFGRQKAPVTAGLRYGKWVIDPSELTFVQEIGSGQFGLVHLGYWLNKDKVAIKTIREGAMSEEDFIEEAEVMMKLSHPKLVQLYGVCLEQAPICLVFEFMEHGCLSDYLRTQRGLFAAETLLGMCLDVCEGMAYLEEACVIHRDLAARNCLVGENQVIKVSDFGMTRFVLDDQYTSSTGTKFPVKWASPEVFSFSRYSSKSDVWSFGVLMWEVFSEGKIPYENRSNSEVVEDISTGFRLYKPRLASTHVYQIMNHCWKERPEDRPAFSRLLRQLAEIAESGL
Method: (§1) Inhibitory activities against BTK and ITK were measured for the compounds prepared in the above Examples as follows.
The inhibitory activity against ITK was evaluated using ‘ADP-Glo™+ITK Kinase enzyme system’ kit (Promega Corporation). In a white 96-well plate, 10 ul of ITK enzyme prepared so as to have a final concentration of 0.4 ng/ul was mixed with 5 ul of compounds having a final concentration of 1 uM in the case of evaluating a single concentration of compound and a concentration of 1000, 300, 100, 30, 10, 3, 1, 0.3, 0.1 and 0.03 nM in the case of IC50 evaluation, and then reacted at room temperature for 15 minutes. To the plate on which reactions were completed, 5 ul of substrate and 5 ul of ATP prepared so as to have a final concentration of […] added and then allowed to react at 30° C. for 1 hour. All wells of the plate were treated with 25 ul of ADP-Glo™ reagent and then allowed to react at 30° C. for 40 minutes. After that, all wells were treated with 50 ul of kinase detection buffer, and then allowed to react at 30° C. for 30 minutes under light shielding conditions. For the plate on which all reactions were completed, luminescence was measured and the results were calculated. Evaluation was carried out in duplicate, and negative control and positive control were calculated depending on whether or not the enzyme was added without treatment of the compound. The IC50 was calculated based on the calculated values.

[2] = target: T2, BTK (Homo sapiens, UniProt Q06187); experiment: ADP-Glo + BTK Kinase enzyme system kit, inhibitory activity against BTK; assay type: biochemical; details: BTK enzyme 1 ng/ul, ATP 10 μM, 30° C. for 1 hour, luminescence, duplicate
T2 construct: purchased Promega Corporation
T2 sequence (Q06187 whole entry): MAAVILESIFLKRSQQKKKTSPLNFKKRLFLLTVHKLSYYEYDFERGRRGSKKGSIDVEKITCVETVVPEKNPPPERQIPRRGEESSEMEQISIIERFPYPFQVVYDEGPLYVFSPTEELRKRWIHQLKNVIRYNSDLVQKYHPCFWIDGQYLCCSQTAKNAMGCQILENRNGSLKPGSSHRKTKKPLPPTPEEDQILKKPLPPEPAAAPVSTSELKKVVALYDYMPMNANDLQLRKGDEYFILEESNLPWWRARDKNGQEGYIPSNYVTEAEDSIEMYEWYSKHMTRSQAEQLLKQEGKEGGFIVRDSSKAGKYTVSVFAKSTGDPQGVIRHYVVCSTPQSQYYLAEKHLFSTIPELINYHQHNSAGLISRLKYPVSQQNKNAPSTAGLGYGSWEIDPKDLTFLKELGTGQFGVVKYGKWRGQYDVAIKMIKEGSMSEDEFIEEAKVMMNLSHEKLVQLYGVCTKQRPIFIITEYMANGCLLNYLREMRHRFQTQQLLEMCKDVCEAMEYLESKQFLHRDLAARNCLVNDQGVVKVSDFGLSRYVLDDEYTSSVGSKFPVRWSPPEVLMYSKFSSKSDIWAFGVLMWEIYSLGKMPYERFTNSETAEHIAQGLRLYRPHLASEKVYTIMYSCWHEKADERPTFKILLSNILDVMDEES
Method: as §1
The inhibitory activities against BTK were evaluated using ‘ADP-Glo™+BTK Kinase enzyme system’ kit (Promega Corporation). In a white 96-well plate, 10 ul of BTK enzyme prepared so as to have a final concentration of 1 ng/ul was mixed with 5 μl of compounds having a final concentration of […] the case of evaluating a single concentration of compound and a concentration of 1000, 300, 100, 30, 10, 3, 1, 0.3, 0.1 and 0.03 nM in the case of IC50 evaluation, and then reacted at room temperature for 15 minutes. 5 ul of substrate and 5 ul of ATP prepared so as to have a final concentration of 10 μM were added to the plate on which reactions were completed, and then allowed to react at 30° C. for 1 hour. All wells of the plate were treated with 25 ul of ADP-Glo™ reagent and allowed to react at 30° C. for 40 minutes. After that, all wells were treated with 50 ul of kinase detection buffer, and then reacted at 30° C. for 30 minutes under light shielding conditions. For the plate on which all reactions were completed, luminescence was measured and the results were calculated. Evaluation was carried out in duplicate, and negative control and positive control were calculated depending on whether or not the enzyme was added without treatment of the compound. The IC50 was calculated based on the calculated values.

SMILES	IC50 [1] [nM]	IC50 [2] [nM]
C=CC(=O)Nc1cccc(-c2cc(CN3CCOCC3)cc(Nc3ncns3)n2)c1 [Compound 44, N-(3-(6-((1,2,4-thiadiazol-5-yl)amino)-4-(morpholinomethyl)pyridin-2-yl)phenyl)acrylamide]	12	2
C=CC(=O)Nc1cccc(-c2cc(CN3CCN(C4CC4)CC3)cc(Nc3ncc(C)s3)n2)c1 [Compound 45, N-(3-(4-((4-cyclopropylpiperazin-1-yl)methyl)-6-((5-methylthiazol-2-yl)amino)pyridin-2-yl)phenyl)acrylamide]	2.1	3
C=CC(=O)Nc1cccc(-c2cc(CN3C[C@@H](C)O[C@@H](C)C3)cc(Nc3ncc(C)s3)n2)c1 [Compound 46, N-(3-(4-(((2S,6R)-2,6-dimethylmorpholino)methyl)-6-(5-methylthiazol-2-ylamino)pyridin-2-yl)phenyl)acrylamide]	1.6	1.7
C=CC(=O)Nc1cccc(-c2cc(CN3CCCC3)cc(Nc3ncc(C)s3)n2)c1 [Compound 47, N-(3-(6-((5-methylthiazol-2-yl)amino)-4-(pyrrolidin-1-ylmethyl)pyridin-2-yl)phenyl)acrylamide]	8.2	3
C=CC(=O)Nc1cccc(-c2cc(CN3CCN(CC(F)(F)F)CC3)cc(Nc3ncc(C)s3)n2)c1 [Compound 50, N (3(6(5methylthiazol-2-ylamino)-4-((4-(2,2,2-trifluoroethyl)piperazin-1-yl)methyl)pyridin-2-yl)phenyl)acrylamide]	5	2.2
C=CC(=O)Nc1ccc(F)c(-c2cc(CN3CCOCC3)cc(Nc3ncc(C)s3)n2)c1 [Compound 52]	2.2	1.9
C=CC(=O)Nc1cccc(-c2cc(CN3CCN(C(C)C)CC3)cc(Nc3ncc(C)s3)n2)c1 [Compound 54]	2.9	1.9
C=CC(=O)Nc1cccc(-c2cc(CN3CCCN(C)CC3)cc(Nc3ncc(C)s3)n2)c1 [Compound 55, N-(3-(4-((4-methyl-1,4-diazepan-1-yl)methyl)-6-(5-methylthiazol-2-ylamino)pyridin-2-yl)phenyl)acrylamide]	13.4	10.6
C=CC(=O)Nc1cc(-c2cc(CN3CCOCC3)cc(Nc3ncc(C)s3)n2)ccc1C [Compound 58]	14.1	6.4
C=CC(=O)Nc1ccc(C)c(-c2cc(CN3CCOCC3)cc(Nc3ncc(C)s3)n2)c1 [Compound 59, N-(4-methyl-3-(6-((5-methylthiazol-2-yl)amino)-4-(morpholinomethyl)pyridin-2-yl)phenyl)acrylamide]	18.1	8.3
C=CC(=O)Nc1cccc(-c2cc(CN3CCN(C(C)=O)CC3)cc(Nc3ncc(C)s3)n2)c1 [Compound 60, N-(3-(4-((4-acetylpiperazin-1-yl)methyl)-6-(5-methylthiazol-2-ylamino)pyridin-2-yl)phenyl)acrylamide]	2.2	1.9
C=CC(=O)Nc1cccc(-c2cc(CN3CCN(C(=O)C4CC4)CC3)cc(Nc3ncc(C)s3)n2)c1 [Compound 63, N (3(4((4-(cyclopropanecarbonyl)piperazin-1-yl)methyl)-6-(5-methylthiazol-2-ylamino)pyridin-2-yl)phenyl)acrylamide]	9	6.7
C=CC(=O)N(C)c1cccc(-c2cc(CN3CCOCC3)cc(Nc3ncc(C)s3)n2)c1 [Compound 65]	2.1	1.9

Further lines, results first:

IC50 [1] [nM]	IC50 [2] [nM]	SMILES
2.1	2.3	C=CC(=O)Nc1cccc(-c2cc(CN3CCN(CCO)CC3)cc(Nc3ncc(C)s3)n2)c1 [Compound 43, N-(3-(4-((4-(2-hydroxyethyl)piperazin-1-yl)methyl)-6-(5-methylthiazol-2-ylamino)pyridin-2-yl)phenyl)acrylamide]
4.3	1.1	C=CC(=O)Nc1cccc(-c2cc(CN3CCN(CCC)CC3)cc(Nc3ncc(C)s3)n2)c1 [Compound 48, N-(3-(6-((5-methylthiazol-2-yl)amino)-4-((4-propylpiperazin-1-yl)methyl)pyridin-2-yl)phenyl)acrylamide]
3.1	1.3	C=CC(=O)Nc1cccc(-c2cc(CN3CCN(CCOC)CC3)cc(Nc3ncc(C)s3)n2)c1 [Compound 49, N-(3-(4-((4-(2-methoxyethyl)piperazin-1-yl)methyl)-6-(5-methylthiazol-2-ylamino)pyridin-2-yl)phenyl)acrylamide]
2.2	5.2	C=CC(=O)Nc1cccc(-c2cc(CN3CCOCC3)cc(Nc3ncc(C(F)(F)F)s3)n2)c1 [Compound 51]
3.8	2.3	C=CC(=O)Nc1cccc(-c2cc(CN3CCN(CC)CC3)cc(Nc3ncc(C)s3)n2)c1 [Compound 53, N-(3-(4-((4-ethylpiperazin-1-yl)methyl)-6-(5-methylthiazol-2-yl)amino)pyridin-2-yl)phenylacrylamide]
4.2	1.8	C=CC(=O)Nc1cc(-c2cc(CN3CCOCC3)cc(Nc3ncc(C)s3)n2)ccc1F [Compound 56, N-(2-fluoro-5-(6-((5-methylthiazol-2-yl)amino)-4-(morpholinomethyl)pyridin-2-yl)phenyl)acrylamide]
23.2	> 6.3	C=CC(=O)Nc1cc(F)cc(-c2cc(CN3CCOCC3)cc(Nc3ncc(C)s3)n2)c1 [Compound 57, N-(3-fluoro-5-(6-((5-methylthiazol-2-yl)amino)-4-(morpholinomethyl)pyridin-2-yl)phenyl)acrylamide]
13.5	9.5	C=CC(=O)Nc1cccc(-c2cc(CN3CCN(C(=O)CC)CC3)cc(Nc3ncc(C)s3)n2)c1 [Compound 61, N (3(6(5methylthiazol-2-ylamino)-4-((4-propionylpiperazin-1-yl)methyl)pyridin-2-yl)phenyl)acrylamide]
15.7	18.1	C=CC(=O)Nc1ccc(Cl)c(-c2cc(CN3CCOCC3)cc(Nc3ncc(C)s3)n2)c1 [Compound 64]
3.7	1.3	C=CC(=O)N(CC)c1cccc(-c2cc(CN3CCOCC3)cc(Nc3ncc(C)s3)n2)c1 [Compound 66, N-ethyl-N-(3-(6-(5-methylthiazol-2-ylamino)-4-(morpholinomethyl)pyridin-2-yl)phenyl)acrylamide]
> 200	64.1	C=CC(=O)Nc1cccc(-c2cc(CN3CCOCC3)cc(NC(=O)NC)n2)c1 [Compound 67, N-(3-(6-(3-methylureido)-4-(morpholinomethyl)pyridin-2-yl)phenyl)acrylamide]
> 1000	> 400	C=CC(=O)Nc1cccc(-c2cc(CN3CCOCC3)cc(NC(=O)CC)n2)c1 [Compound 68, N-(3-(4-(morpholinomethyl)-6-propionamidopyridin-2-yl)phenyl)acrylamide]
8	3.3	C=CC(=O)Nc1cccc(-c2cc(Cc3cccnc3)cc(Nc3cc(C)[nH]n3)n2)c1 [Compound 72, N-(3-(6-((5-methyl-1H-pyrazol-3-yl)amino)-4-(pyridin-3-ylmethyl)pyridin-2-yl)phenyl)acrylamide]

From patent US11149019B2, “Phenylpyridine derivative and pharmaceutical composition comprising the same” (Daewoong Pharmaceutical Co., Ltd., priority 2017, dated 2021)
